The subject of data set [1] is cerulein-induced pancreatitis in PRSS1^R122H mice. The following applies: cited from earlier work.
Data set [2] has as its system trypsin. The settings on record: cited from earlier work.
The subject of data set [3] is transmembrane serine protease 2. The following applies: cited from earlier work.
For data set [4], the system named is cerulein-induced pancreatitis in T7K24R mice. The data set can be described thus: Cerulein-induced pancreatitis in T7K24R mice. It is filed as in vivo, mouse. Here is the method: Pancreatitis was induced in T7K24R mice with 8 hourly intraperitoneal injections of the secretagogue peptide cerulein used in a dose of 50 μg/kg. Cerulein (catalog number C9026, MilliporeSigma) was dissolved in sterile normal saline at 10 μg/mL concentration. Mice were sacrificed 1, 24, 48, 72, or 96 hours from the first cerulein injection, as indicated, and the pancreas and blood were harvested. Details of histological analysis and measurement of plasma amylase (4 μL assayed) were reported previously ([29]–[31]).
(§1) Control mice were given gavage of the vehicle solution (Captisol; see below) or regular chow.
(§2) Captisol (β-cyclodextrin sulfobutyl ethers, sodium salts, lot number NC-04A-180185) was obtained from Cydex Pharmaceuticals (through Thermo Fisher Scientific) and was dissolved in sterile normal saline (3.5 g in 10 mL). […] The mixture was then compressed into pellets using the barrel of a 10 mL plastic syringe and a plunger. The prodrug-containing pellets were allowed to dry at 24°C for 2 days and stored at 4°C until use.

The conditions of data set [5]: humans; independent of dose, not influenced by food; cited from earlier work.
Data set [6] can be described thus: Estimation of absorbed dabigatran etexilate. More on the design: species or system mouse.
Data set [7] has as its system spontaneous pancreatitis in T7D23A mice. The data set can be described thus: Spontaneous pancreatitis in T7D23A mice, oral gavage. It is filed as in vivo, mouse.
From the text: (§3) The generation and properties of the T7D23A and T7K24R mice carrying trypsinogen mutations were described recently ([29], [30]). Heterozygous T7D23A and homozygous T7K24R mice were used. Protocols for genotyping have been reported earlier ([29], [30]). C57BL/6N mice were purchased from Charles River Laboratories or produced in our breeding facility from the same stock. Both male and female mice were studied.
as §1, §2

For data set [8] the test system is unchanged. The data set can be described thus: Spontaneous pancreatitis in T7D23A mice, feeding with drug-containing chow. It is filed as in vivo, mouse.
From the text: as §3, §1, §2

The subject of data set [9] is T7D23A and T7K24R mice. Put plainly: Safety observations in treated mice. It is filed as in vivo, mouse.
From the text: as §1

Setting [10] is: single oral gavage 200 mg/kg 30 minutes after last cerulein injection, 96 hours.
Setting [11] is: single oral gavage 200 mg/kg, 15 treated mice.
Setting [12] is: gavage 1 × 100, 2 × 100 or 1 × 200 mg/kg daily for 2 weeks.

Where “and” joins values, the source holds several entries; their conditions need not be identical. Equal entries are not always repeated. Where two headings read alike, the source gives them in different places.

Turning to `COc1ccc(-n2nc(C(N)=O)c3c2C(=O)N(c2ccc(N4CCCCC4=O)cc2)CC3)cc1` [apixaban], the figures for the therapeutic activity entry in data set [1] (100 mg/kg alone) and in data set [1] (apixaban 100 mg/kg combined with camostat 200 mg/kg) were “no therapeutic activity whatsoever” and “highly effective”, respectively. For the same molecule, the trypsin-inhibitory activity entry in [2] was “devoid of trypsin-inhibitory activity”.
For `CN(C)C(=O)COC(=O)Cc1ccc(OC(=O)c2ccc(NC(=N)N)cc2)cc1` [camostat], the therapeutic activity entry in data set [1] (200 mg/kg alone) is “only a partial effect”. Besides, in data set [3], the “inhibition of transmembrane serine protease 2” value is on record as “strong inhibitors”.
Consider `CCCCCCOC(=O)NC(=N)c1ccc(NCc2nc3cc(C(=O)N(CCC(=O)OCC)c4ccccn4)ccc3n2C)cc1` [dabigatran etexilate], for which the “effect on cerulein-induced pancreatitis” value in data set [1] (PRSS1^R122H transgenic mice) was “markedly improved”. In addition, in [4] (setting [10]), the “body weight, start versus end of experiment” value was “no change in body weight” and the “pancreas weight versus vehicle-treated mice with pancreatitis” value is on record as “significantly higher”. Moreover, in data set [4] (setting [11]), the “share of drug-treated mice with complete protective effect (histology)” value is given as roughly 50% and the “share of mice with significant yet incomplete effect (30%–50% normal histology)” value is reported as “about 20%”. In addition, the “plasma amylase activity in a subset of treated mice (4 of 15)” value in data set [4] (single oral gavage 200 mg/kg, 4 days after induction) is on record as “more than 3 fold”. Further, the “proportion of intact acini versus vehicle-treated group” value in data set [4] (single oral gavage 200 mg/kg, histology at 96 hours) was “significantly higher”. The “intact acini on pancreas sections, individual mice with elevated plasma amylase” value in [4] (single oral gavage 200 mg/kg, the 4 mice with elevated amylase, 200 mg/kg) was 45% and 13% and 15% and 35%. In addition, in [5], the oral bioavailability entry was “around 6.5%”. For the same molecule, in data set [6] (10 mg prodrug/g chow, about 4 g chow per 24 hours, estimated), the “daily dose of absorbed dabigatran etexilate” value was 2.6 mg. In addition, the “systemically absorbed single dose” value in data set [6] (100 mg/kg intragastric gavage, 20 g mouse, estimated from human bioavailability) is reported as 0.13 mg. In [7] (setting [12]), the “intact acini per visual field, treated versus untreated” value is given as “no appreciable difference”; the pancreas weight entry is given as “did not improve”; the “plasma amylase levels relative to untreated T7D23A controls” value is recorded as “significantly lower”. Moreover, the body weight gain entry in data set [7] (gavage 1 × 100, 2 × 100 or 1 × 200 mg/kg daily for 2 weeks, 3 to 5 weeks of age) was “unaffected by gavage treatment”. Further, in data set [7] (intragastric gavage for 2 weeks), the “effect on spontaneous pancreatitis” value is listed as “did not ameliorate”. In [8] (chow with 10 mg/g for 1 week), the “effect on spontaneous pancreatitis” value is reported as “did not prevent or improve” and the “intact acini, pancreatitis severity” value is given as “no effect”. Moreover, the plasma amylase activities entry in data set [8] (chow with 10 mg/g for 1 week, all 4 groups) is listed as “comparable”. Besides, the “pancreas weight, treated versus untreated” value in data set [8] (chow with 10 mg/g for 1 week, both strains (C57BL/6N and T7D23A)) is listed as “small increase”. Besides, the body weight gain entry in [8] (chow with 10 mg/g, 21 to 28 days of age, C57BL/6N and T7D23A) is “gained weight similarly”. In [9] (gavage 100 or 200 mg/kg or chow 10 mg/g), the “bleeding, morbidity, mortality” value is given as “no bleeding, morbidity, or mortality were observed”. In addition, in data set [9] (mice treated with dabigatran etexilate or vehicle), the “hematoxylin-eosin sections of liver, intestine, and kidney” value is “no signs of organ damage”.
`N=C(N)c1ccc2cc(OC(=O)c3ccc(N=C(N)N)cc3)ccc2c1` [nafamostat]: in [3], the “inhibition of transmembrane serine protease 2” value is listed as “strong inhibitors”.

The values are drawn from publication PMC9675574 (JCI Insight, 2022).
